According to ChEMBL document CHEMBL3352698, “Synthesis of 3',4'-difluoro-3'-deoxyribonucleosides and its evaluation of the biological activities: discovery of a novel type of anti-HCV agent 3',4'-difluorocordycepin” (Bioorg Med Chem, 2014):
The source made the active and inactive calls. The rule behind the calls is not given here.

Assays:
[1] = Selectivity index, ratio of CC50 for human ORL8 cells to EC50 for Hepatitis C virus infected in […]; assay type: toxicity, cell-based; conditions: read-out: Ratio CC50/EC50
[2] = tested on: Hepatitis C virus; test: Antiviral activity against Hepatitis C virus infected in […] after 72 hrs by luciferase reporter gene assay; assay type: functional, organism-based, Hepacivirus hominis; conditions: OR6, 72 h
[3] = Cytotoxicity against human ORL8 cells after 72 hrs by WST-1 assay; assay type: cell-based
[4] = tested on: Leukemia cell; test: Cytotoxicity against mouse leukemia cells; assay type: functional, cell-based
[5] = tested on: Herpesviridae sp.; test: Antimicrobial activity against Herpes simplex virus; assay type: functional, organism-based
[6] = tested on: Human alphaherpesvirus 3; test: Antimicrobial activity against Varicella-zoster virus; assay type: functional, organism-based
[7] = tested on: Human betaherpesvirus 5; test: Antimicrobial activity against Human cytomegalovirus; assay type: functional, organism-based
[8] = tested on: Cancer cell lines; test: Cytotoxicity against human cervical cancer cells; assay type: functional, cell-based
[9] = tested on: Vesicular stomatitis virus; test: Antimicrobial activity against Vesicular stomatitis virus; assay type: functional, organism-based
[10] = tested on: Hepatitis C virus; test: Antiviral activity against Hepatitis C virus infected in mouse HB-1 cells after 24 hrs by ribonuclease replicon assay; assay type: functional, organism-based, Hepacivirus hominis; conditions: HB1, 24 h

Structure (SMILES)	selectivity ratio [1]	EC50 [2] [µM]	CC50 at 72 h [3] [µM]	inhibition [4]	Activity [5]	Activity [6]	Activity [7]	inhibition [8]	Activity [9]	EC50 [10] [µM]
NC(=O)c1ncn([C@@H]2O[C@H](CO)[C@@H](O)[C@H]2O)n1 [RIBAVIRIN]	18	5.6	100	–	–	–	–	–	–	–
Nc1ccn([C@@H]2O[C@](F)(CO)[C@@H](F)[C@H]2O)c(=O)n1	< 1	> 50	> 50	–	–	–	–	–	–	–
Nc1ncnc2c1ncn2[C@@H]1O[C@@](F)(CO)[C@@H](F)[C@@H]1O	> 1	> 200	> 200	inactive	inactive	inactive	inactive	inactive	inactive	–
Nc1ncnc2c1ncn2[C@@H]1O[C@H](CO)C[C@H]1O [CORDYCEPIN]	0.19	70	13	–	–	–	–	–	–	–
Nc1ccn([C@@H]2O[C@](F)(CO)[C@H](F)[C@H]2O)c(=O)n1	< 0.36	> 100	36	–	–	–	–	–	–	–
CC(C)OC(=O)[C@H](C)N[P@](=O)(OC[C@H]1O[C@@H](n2ccc(=O)[nH]c2=O)[C@](C)(F)[C@@H]1O)Oc1ccccc1 [SOFOSBUVIR]	> 36	0.14	> 5	–	–	–	–	–	–	–
Nc1ncnc2c1ncn2[C@@H]1O[C@@](F)(CO)[C@H](F)[C@H]1O	> 1	> 100	> 100	inactive	inactive	inactive	inactive	inactive	inactive	–
Nc1ccn([C@@H]2O[C@@](F)(CO)[C@H](F)[C@H]2O)c(=O)n1	< 0.23	> 100	23	–	–	–	–	–	–	–
Nc1ncnc2c1ncn2[C@@H]1O[C@](F)(CO)[C@H](F)[C@H]1O	> 1	> 200	> 200	inactive	inactive	inactive	inactive	inactive	inactive	–
Nc1ncnc2c1ncn2[C@@H]1O[C@H](CO)[C@@H](F)[C@H]1O	–	–	–	–	–	–	–	–	–	1.2
Nc1ncnc2c1ncn2[C@@H]1O[C@](F)(CO)[C@@H](F)[C@H]1O	19	4.7	90	inactive	inactive	inactive	inactive	inactive	inactive	–
